Here are results for 7 compounds from article PMC6210068 (ACS Omega, 2018).

In general, Ki refers to a dissociation constant, usually derived from enzyme kinetics or from competition with a known ligand. A higher Ki goes with lower affinity. What is called inhibition is the change of the read-out against control, counted positive when it falls.

For one assay, the target named is DOR (Homo sapiens, UniProt P41143). Description: Radioligand binding at DOR.
In assay [1] the target is T1, KOR (Homo sapiens, UniProt P41145). Description: biochemical. The conditions noted are these: for Ki: KOR, [3H]U69593, mean ± SEM, N = 2–4. The format is binding.
T1 sequence (P41145 whole entry): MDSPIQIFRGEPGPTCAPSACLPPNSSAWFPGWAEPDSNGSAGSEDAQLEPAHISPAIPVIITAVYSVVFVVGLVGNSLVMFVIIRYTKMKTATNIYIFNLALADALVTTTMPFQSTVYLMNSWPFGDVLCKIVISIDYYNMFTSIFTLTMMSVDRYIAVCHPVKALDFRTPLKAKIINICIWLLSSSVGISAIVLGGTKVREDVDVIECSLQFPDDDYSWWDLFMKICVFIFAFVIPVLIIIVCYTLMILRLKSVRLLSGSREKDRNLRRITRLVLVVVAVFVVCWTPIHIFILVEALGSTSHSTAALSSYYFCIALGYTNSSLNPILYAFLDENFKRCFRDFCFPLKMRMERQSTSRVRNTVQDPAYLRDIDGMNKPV
The target of a further assay is MOR (Homo sapiens, UniProt P35372). Description: biochemical. The conditions noted are these: for MOR, inhibition of radioligand binding at 10 μM (class): Table 2. The assay is classed as binding.
Chain of MOR (P35372 whole entry): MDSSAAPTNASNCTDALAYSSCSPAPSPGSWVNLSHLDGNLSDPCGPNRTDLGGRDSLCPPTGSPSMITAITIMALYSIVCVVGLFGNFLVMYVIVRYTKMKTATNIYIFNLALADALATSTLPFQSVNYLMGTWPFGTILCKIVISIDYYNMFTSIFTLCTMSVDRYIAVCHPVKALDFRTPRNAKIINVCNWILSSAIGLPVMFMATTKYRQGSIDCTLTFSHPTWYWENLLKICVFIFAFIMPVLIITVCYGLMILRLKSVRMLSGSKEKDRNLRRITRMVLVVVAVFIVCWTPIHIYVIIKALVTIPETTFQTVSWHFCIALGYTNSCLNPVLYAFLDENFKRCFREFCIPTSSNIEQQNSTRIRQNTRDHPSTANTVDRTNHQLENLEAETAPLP
In a further assay the target is rat kidney TSPO (Rattus norvegicus, UniProt P16257). Description: Radioligand binding at TSPO. Particulars: for Ki: TSPO, rat TSPO, [3H]PK11195.
Chain of rat kidney TSPO (P16257 whole entry): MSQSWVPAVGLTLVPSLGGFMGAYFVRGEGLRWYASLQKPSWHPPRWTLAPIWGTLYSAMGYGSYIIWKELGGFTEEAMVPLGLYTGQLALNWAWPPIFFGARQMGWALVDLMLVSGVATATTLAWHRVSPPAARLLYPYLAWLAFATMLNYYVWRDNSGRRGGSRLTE
The target of a further assay is hDAT (Homo sapiens, UniProt Q01959). Description: Radioligand binding at DAT. Particulars: 10 μM; [3H]WIN35428; negative = enhanced radioligand binding.
Chain of hDAT (Q01959 whole entry): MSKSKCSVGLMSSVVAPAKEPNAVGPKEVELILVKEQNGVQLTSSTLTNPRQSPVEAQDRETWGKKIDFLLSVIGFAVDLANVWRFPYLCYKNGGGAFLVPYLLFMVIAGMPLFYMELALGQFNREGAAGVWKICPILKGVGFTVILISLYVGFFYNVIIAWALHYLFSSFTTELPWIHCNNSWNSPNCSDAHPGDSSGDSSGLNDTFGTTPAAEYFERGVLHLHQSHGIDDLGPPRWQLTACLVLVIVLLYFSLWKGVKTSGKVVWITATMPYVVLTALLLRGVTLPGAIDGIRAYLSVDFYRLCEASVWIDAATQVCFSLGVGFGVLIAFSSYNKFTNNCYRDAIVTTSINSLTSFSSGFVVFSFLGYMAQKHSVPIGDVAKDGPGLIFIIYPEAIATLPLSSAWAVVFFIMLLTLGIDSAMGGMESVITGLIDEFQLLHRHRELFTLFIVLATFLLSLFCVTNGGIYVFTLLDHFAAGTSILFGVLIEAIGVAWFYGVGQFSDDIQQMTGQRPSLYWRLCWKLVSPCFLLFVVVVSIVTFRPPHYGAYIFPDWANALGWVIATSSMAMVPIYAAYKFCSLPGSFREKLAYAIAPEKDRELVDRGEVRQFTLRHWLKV
The target of a further assay is T2, 5HT2C serotonin receptor (Homo sapiens, UniProt P28335).
T2 sequence (P28335 33-458): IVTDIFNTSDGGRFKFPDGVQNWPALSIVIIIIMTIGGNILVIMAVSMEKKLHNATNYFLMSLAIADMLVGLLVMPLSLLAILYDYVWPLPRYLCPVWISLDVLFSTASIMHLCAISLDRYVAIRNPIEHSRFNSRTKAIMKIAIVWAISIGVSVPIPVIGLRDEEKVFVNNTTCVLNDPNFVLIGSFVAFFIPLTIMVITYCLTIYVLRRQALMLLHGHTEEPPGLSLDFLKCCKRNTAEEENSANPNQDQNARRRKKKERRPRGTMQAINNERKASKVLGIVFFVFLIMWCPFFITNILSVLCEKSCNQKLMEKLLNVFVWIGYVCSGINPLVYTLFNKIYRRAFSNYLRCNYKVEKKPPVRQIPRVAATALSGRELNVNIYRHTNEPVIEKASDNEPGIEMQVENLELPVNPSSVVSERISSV
Description: PDSP off-target binding, 5HT2C.

In assay [2] the target is T3, mA3AR (Mus musculus, UniProt Q61618).
T3 sequence (Q61618 1-319): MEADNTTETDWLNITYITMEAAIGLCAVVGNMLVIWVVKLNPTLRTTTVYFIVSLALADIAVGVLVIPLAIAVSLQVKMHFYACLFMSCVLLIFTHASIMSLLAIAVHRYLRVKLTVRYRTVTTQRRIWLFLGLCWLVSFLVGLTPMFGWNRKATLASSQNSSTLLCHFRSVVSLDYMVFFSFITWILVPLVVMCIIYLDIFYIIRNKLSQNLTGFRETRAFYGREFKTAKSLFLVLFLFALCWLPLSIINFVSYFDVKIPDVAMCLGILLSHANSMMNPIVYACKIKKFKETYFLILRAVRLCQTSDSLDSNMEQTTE
Particulars: ref Tosh et al. 2,3,6,34,35,37; cited from earlier work.

A further assay has as its target T4, hA3AR (Homo sapiens, UniProt P0DMS8).
T4 sequence (P0DMS8 1-318): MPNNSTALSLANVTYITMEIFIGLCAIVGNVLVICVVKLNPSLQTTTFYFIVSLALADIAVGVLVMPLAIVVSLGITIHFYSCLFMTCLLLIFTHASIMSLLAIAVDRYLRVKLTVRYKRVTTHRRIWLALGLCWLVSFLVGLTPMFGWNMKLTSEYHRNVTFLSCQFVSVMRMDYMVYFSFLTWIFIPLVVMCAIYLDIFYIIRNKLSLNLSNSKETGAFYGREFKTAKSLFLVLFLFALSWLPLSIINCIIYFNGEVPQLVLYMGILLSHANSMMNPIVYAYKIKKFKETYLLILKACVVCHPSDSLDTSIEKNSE
Description: A3AR binding.

For assay [3], the target named is T1, KOR. The assay is classed as cell-based. The conditions noted are these: 1 μM 98.
Assay [4] addresses T1, KOR. Description: cell-based. The format is cell-based.
The target of the next assay is 5HT2B serotonin receptor (Homo sapiens, UniProt P41595). Description: PDSP off-target binding, 5HT2B.
Chain of 5HT2B serotonin receptor (P41595 whole entry): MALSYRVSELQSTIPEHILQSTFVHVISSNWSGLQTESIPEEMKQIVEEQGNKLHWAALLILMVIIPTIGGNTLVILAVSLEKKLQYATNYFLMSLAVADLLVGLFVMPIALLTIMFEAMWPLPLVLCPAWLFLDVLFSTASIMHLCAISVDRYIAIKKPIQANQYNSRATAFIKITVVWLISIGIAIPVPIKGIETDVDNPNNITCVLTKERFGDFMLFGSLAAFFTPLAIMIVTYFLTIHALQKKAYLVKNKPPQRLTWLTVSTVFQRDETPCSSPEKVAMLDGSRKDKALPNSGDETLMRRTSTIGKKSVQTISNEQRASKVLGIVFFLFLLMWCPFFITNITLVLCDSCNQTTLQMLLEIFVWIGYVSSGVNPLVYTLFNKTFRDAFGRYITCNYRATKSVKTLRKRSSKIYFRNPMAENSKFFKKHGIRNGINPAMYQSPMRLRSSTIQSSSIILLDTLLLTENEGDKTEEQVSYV
The target in the next assay is T5, mA1AR (Mus musculus, UniProt Q60612).
T5 sequence (Q60612 1-326): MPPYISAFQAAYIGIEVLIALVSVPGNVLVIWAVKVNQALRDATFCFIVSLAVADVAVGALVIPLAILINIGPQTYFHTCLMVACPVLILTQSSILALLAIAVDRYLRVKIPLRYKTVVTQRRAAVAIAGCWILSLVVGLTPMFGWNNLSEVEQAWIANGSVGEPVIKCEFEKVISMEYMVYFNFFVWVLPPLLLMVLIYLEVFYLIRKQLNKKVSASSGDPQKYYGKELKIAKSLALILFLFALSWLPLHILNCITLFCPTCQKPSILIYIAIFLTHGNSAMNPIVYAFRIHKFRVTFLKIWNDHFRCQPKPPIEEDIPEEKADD
Description: mA1AR binding. The conditions noted are these: read-out: mA1AR binding, % inhibition at 10 μM.

In another assay the target is mA2AAR (Mus musculus, UniProt Q60613). Description: mA2AAR binding. Particulars: read-out: mA2AAR binding, % inhibition at 10 μM.
Chain of mA2AAR (Q60613 whole entry): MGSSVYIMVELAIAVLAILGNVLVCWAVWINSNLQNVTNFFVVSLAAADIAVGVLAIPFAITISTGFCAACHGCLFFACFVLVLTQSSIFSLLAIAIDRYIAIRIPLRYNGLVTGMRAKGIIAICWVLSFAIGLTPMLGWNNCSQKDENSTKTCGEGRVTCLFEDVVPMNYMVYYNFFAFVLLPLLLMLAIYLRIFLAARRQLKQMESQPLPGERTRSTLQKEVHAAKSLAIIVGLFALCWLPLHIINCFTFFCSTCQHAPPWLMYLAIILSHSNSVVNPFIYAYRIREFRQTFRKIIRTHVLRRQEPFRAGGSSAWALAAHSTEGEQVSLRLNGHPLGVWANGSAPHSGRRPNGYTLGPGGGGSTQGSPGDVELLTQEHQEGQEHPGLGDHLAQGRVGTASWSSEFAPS
For assay [5], the target named is T3, mA3AR. Description: Mouse A3AR binding.
For the next assay, the target named is T6, hA1AR (Homo sapiens, UniProt P30542).
T6 sequence (P30542 1-326): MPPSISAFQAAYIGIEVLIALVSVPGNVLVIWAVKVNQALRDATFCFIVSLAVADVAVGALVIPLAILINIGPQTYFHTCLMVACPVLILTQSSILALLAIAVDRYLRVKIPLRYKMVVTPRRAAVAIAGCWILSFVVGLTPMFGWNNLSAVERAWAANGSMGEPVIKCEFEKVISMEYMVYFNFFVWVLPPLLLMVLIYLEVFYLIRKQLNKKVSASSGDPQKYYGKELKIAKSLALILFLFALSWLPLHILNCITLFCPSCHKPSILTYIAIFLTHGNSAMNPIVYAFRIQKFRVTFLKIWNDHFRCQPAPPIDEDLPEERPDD
Description: hA1AR binding. Particulars: read-out: binding inhibition at hA1AR (% at 10 μM).

For the next assay, the target named is hA2AAR (Homo sapiens, UniProt P29274). Description: hA2AAR binding. The conditions noted are these: read-out: binding inhibition at hA2AAR (% at 10 μM).
Chain of hA2AAR (P29274 whole entry): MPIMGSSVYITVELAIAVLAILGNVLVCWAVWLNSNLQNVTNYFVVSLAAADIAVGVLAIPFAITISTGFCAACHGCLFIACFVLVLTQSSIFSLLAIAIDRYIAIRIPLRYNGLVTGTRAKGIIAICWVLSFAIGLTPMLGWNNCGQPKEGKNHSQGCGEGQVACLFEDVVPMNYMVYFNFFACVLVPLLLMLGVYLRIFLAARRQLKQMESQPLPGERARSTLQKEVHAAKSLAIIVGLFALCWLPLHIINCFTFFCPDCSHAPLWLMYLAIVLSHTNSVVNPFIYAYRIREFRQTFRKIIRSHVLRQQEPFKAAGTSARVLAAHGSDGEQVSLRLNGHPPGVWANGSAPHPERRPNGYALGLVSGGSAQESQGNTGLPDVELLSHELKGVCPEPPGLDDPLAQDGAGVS
The next assay concerns the target T7, rat σ2 receptor (Rattus norvegicus, UniProt Q5U3Y7).
T7 sequence (Q5U3Y7 1-176): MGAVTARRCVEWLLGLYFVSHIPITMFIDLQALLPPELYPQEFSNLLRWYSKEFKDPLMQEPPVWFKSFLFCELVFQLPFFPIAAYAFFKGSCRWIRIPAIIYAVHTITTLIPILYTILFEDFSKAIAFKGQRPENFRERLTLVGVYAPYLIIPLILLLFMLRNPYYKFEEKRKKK
Description: PDSP binding, σ2 receptor.

Where only a bound is given, the exact number is not on record here.

Chain of DOR (P41143 whole entry): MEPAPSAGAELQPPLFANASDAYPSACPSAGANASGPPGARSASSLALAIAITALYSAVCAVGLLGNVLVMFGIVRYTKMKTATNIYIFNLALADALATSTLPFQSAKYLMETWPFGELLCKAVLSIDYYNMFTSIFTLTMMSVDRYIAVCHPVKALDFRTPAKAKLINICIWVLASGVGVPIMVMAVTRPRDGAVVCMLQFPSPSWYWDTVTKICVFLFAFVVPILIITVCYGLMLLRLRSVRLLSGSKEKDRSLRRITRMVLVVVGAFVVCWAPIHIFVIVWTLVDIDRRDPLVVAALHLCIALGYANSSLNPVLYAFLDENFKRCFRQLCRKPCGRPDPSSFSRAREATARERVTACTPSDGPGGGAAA

As for `CNc1nc(C#Cc2ccc(Br)s2)nc2c1ncn2[C@H]1[C@H](O)[C@H](O)[C@]2(C(=O)OC)C[C@H]12` [compound 23], the “DOR, inhibition of radioligand binding at 10 μM (class)” value (from here on “DOR, inhibition of radioligand binding”) on DOR (Table 2) is “^d (<30% inhibition of radioligand binding at 10 μM)”. The inhibitory constant (Ki) on KOR [1] came out at 2.09 ± 0.33 µM; at rat kidney TSPO, 8.12 ± 0.67 µM; at 5HT2C serotonin receptor, 2.33 µM. The “MOR, inhibition of radioligand binding at 10 μM (class)” value (“MOR, inhibition of radioligand binding” for short) on MOR is reported as “^c (30–50% inhibition of radioligand binding at 10 μM)”. In addition, the “DAT, inhibition, % of control at 10 μM” value at hDAT is listed as “–370%”. The “A3AR binding, % at 10 μM (m)” value at mA3AR [2] was 57 ± 1%.
With `CNc1nc(C#Cc2ccccc2)nc2c1ccn2[C@H]1[C@H](O)[C@H](O)[C@@H]2C[C@@H]21` [compound 54, (1R,2R,3S,4R,5S)-4-(4-(Methylamino)-2-(phenylethynyl)-7H-pyrrolo[2,3-d]pyrimidin-7-yl)bicyclo[3.1.0]hexane-2,3-diol], the “DOR, inhibition of radioligand binding” value at DOR (Table 5) is reported as “^d (30–50% inhibition of radioligand binding at 10 μM)”. Also, the figures for the inhibitory constant (Ki) at KOR [1], on MOR and on hA3AR were 1.12 ± 0.22 µM, 2.67 ± 0.28 µM and 0.0856 ± 0.012 µM, respectively. Also, the “TSPO, inhibition of radioligand binding at 10 μM (class)” value (shortened to “TSPO, inhibition of radioligand binding”) on rat kidney TSPO (Table 5) is listed as “^e (<30% inhibition of radioligand binding at 10 μM)”. The “DAT, inhibition, % of control at 10 μM” value on hDAT is listed as −58%. In addition, on hA3AR (28 vs 24, 54 vs 49, 55 vs 51), the “reduction of hA3AR binding affinity by 7-deaza modification” value is listed as 16 fold. The “inhibition of agonist 98 in βarrestin2 assay” value on KOR [3] is “did not inhibit”. Also, on KOR [4] (100 nM 98), the “inhibition of agonist 98 in cAMP assay” value was “did not inhibit”. The inhibition at 30 µM at KOR [4] (CHO, read-out: inhibition of cAMP accumulation, % inhibition at 30 μM) stood at 16%.
As to `CCOC(=O)[C@@]12C[C@@H]1[C@@H](n1ccc3c(NC)nc(C#Cc4ccc(Cl)s4)nc31)[C@@H]1OC(C)(C)O[C@@H]12` [compound 77, Ethyl(3aR,3bS,4aS,5R,5aS)-5-(2-((5-chlorothiophen-2-yl)ethynyl)-4-(methylamino)-7H-pyrrolo[2,3-d]pyrimidin-7-yl)-2,2-dimethyltetrahydrocyclopropa[3,4]cyclopenta[1,2-d][1,3]dioxole-3b(3aH)-carboxylate], the Ki on DOR is 1.99 ± 1.02 µM; at KOR [1], 0.052 ± 0.023 µM; at MOR, 1.53 ± 0.56 µM; on hA3AR, 1.65 ± 0.33 µM; on 5HT2B serotonin receptor, 4.18 µM; on 5HT2C serotonin receptor, 0.016 µM. The “TSPO, inhibition of radioligand binding” value on rat kidney TSPO (Table 2) is “^d (<30% inhibition of radioligand binding at 10 μM)”. The “DAT, inhibition, % of control at 10 μM” value at hDAT is “–20%”. Moreover, the “selectivity at 5HT2CR compared with 5HT2BR” value at 5HT2C serotonin receptor amounted to 260 fold.
Consider `CNc1nc(C#Cc2ccc(Cl)s2)nc2c1ncn2[C@@H]1O[C@H](C(=O)OC)[C@@H](O)[C@H]1O` [compound 46], for which the “KOR, inhibition of radioligand binding at 10 μM (class)” value on KOR [1] (Table 3, 10 μM) was “^d (30–50% inhibition of radioligand binding at 10 μM)”. In addition, the “DAT, inhibition, % of control at 10 μM” value at hDAT was “–220%”. The inhibition at 10 µM on mA1AR was 62%; at mA2AAR, 12%.
Turning to `CNc1nc(C#Cc2ccc(Cl)s2)nc2c1ncn2[C@H]1[C@H](O)[C@H](O)[C@]2(C(=O)OC)C[C@H]12` [compound 22], the “DOR, inhibition of radioligand binding” value on DOR (Table 2) is “^d (<30% inhibition of radioligand binding at 10 μM)”. Also, on KOR [1], affinity was put at a Ki of 3.13 ± 0.3 µM. The “MOR, inhibition of radioligand binding” value on MOR is listed as “^c (30–50% inhibition of radioligand binding at 10 μM)”. In addition, the “TSPO, inhibition of radioligand binding” value on rat kidney TSPO (Table 2) was “^c (30–50% inhibition of radioligand binding at 10 μM)”. The “DAT, inhibition, % of control at 10 μM” value at hDAT was “–352%”. Besides, the “A3AR binding, % at 10 μM (m)” value at mA3AR [2] is listed as 36 ± 1%.
Regarding `CCOC(=O)[C@@]12C[C@@H]1[C@@H](n1cnc3c(NC)cc(C#Cc4ccc(Cl)s4)nc31)[C@H](O)[C@@H]2O` [compound 26], the “DOR, inhibition of radioligand binding” value at DOR (Table 2) was “^c (30–50% inhibition of radioligand binding at 10 μM)”. Moreover, the inhibition constant Ki at KOR [1] was 0.806 ± 0.263 µM; at rat kidney TSPO, 3.81 ± 0.1 µM; on hA3AR, 0.0294 ± 0.0138 µM; at mA3AR [5] it was 0.828 µM; on rat σ2 receptor, 1.76 µM. Besides, the “MOR, inhibition of radioligand binding” value on MOR is on record as “^c (30–50% inhibition of radioligand binding at 10 μM)”. For the same compound, at hDAT, the “DAT, inhibition, % of control at 10 μM” value is on record as under 10%. Further, the inhibition at 10 µM at hA1AR came out at 39%; at hA2AAR, 16%; on mA1AR, 54%; at mA2AAR it was 5%.
Take `CCCOC(=O)[C@@]12C[C@@H]1[C@@H](n1cnc3c(NC)nc(C#Cc4ccc(Cl)s4)nc31)[C@H](O)[C@@H]2O` [compound 30]: the “DOR, inhibition of radioligand binding” value on DOR (Table 2) was “^d (<30% inhibition of radioligand binding at 10 μM)”. Moreover, the Ki at KOR [1] was determined as 0.437 ± 0.167 µM; on rat kidney TSPO, 1.16 ± 0.56 µM. The “MOR, inhibition of radioligand binding” value at MOR was “^d (<30% inhibition of radioligand binding at 10 μM)”. In addition, the “DAT, inhibition, % of control at 10 μM” value at hDAT is “–426%”. The inhibition at 10 µM on mA1AR turned out to be 53%; on mA2AAR, 13%.
